Measurements as given in patent US8013010B2, “5-thioxylopyranose compounds” (Laboratoires Fournier S.A., priority 2006, dated 2011).

How the values were obtained:
venous thrombosis = venous thrombosis test in rats (venous stasis under hypercoagulation with factor Xa, Wessler technique), activity via the oral route; type: in vivo, rat; settings: male Wistar rats, dose 6 mg/kg, thrombosis induced 2 h after administration
Protocol: The antithrombotic activity of the compounds according to the invention was studied in vivo in rats by virtue of a test in which a venous thrombosis is reproduced. The venous thrombosis was induced according to the protocol described in Thromb. Haemost., 1992, 67(1), 176-179. The activity via the oral route was studied according to the procedure described below. The experiment is carried out on non-fasting male Wistar rats weighing from 250 to 280 g and divided into groups of 10 animals each. The test products are administered orally (intubation) in solution or in suspension in a methylcellulose solution (0.5% in water). The concentrations of the compounds are calculated so as to bring about the absorption of an amount of solution of 10 ml/kg orally. A thrombosis is induced at time T after the administration of the product and the thrombus formed is removed and weighed. In order to induce this thrombosis, a venous stasis is brought about under hypercoagulation, according to the technique described by Wessler (J. Applied Physiol., 1959, 943-946), using a solution of activated factor X (Xa), supplied by Biogenic (Montpellier) and comprising a dose of 7.5 nKat/kg, as hypercoagulant. The venous stasis is brought about 10 seconds exactly after the injection of the hypercoagulant. The activity of the test compounds was monitored at various doses, after they had been administered. The thrombosis was induced 2 hours after the administration of the compound. By way of example, the results of the above tests are given in the following table for a few compounds according to the invention (the activity is expressed by the percentage of inhibition of the formation of the thrombus, observed in the presence of the compound according to the invention, with respect to the weight of the thrombus formed in the absence of the compound).

Row | melting point [°C] | Compound | Activity (percentage of inhibition of the formation of the thrombus) (venous thrombosis) [%]
1 | 207 | O[C@@H]1[C@@H](O)[C@H](Oc2ccc(-c3cccnc3)cc2F)SC[C@H]1O [Example 24, 2-Fluoro-4-(3-pyridinyl)phenyl 5-thio-β-D-xylopyranoside] | –
2 | 197 | O[C@@H]1[C@@H](O)[C@H](Oc2cccc(-c3cccnc3)c2)SC[C@H]1O [Example 22, 3-(3-Pyridinyl)phenyl 5-thio-β-D-xylopyranoside] | 81
3 | 138 to 139 | O[C@@H]1[C@@H](O)[C@H](Oc2cccc(-c3ccccn3)c2)SC[C@H]1O [Example 12, 3-(2-Pyridinyl)phenyl 5-thio-β-D-xylopyranoside] | 88
4 | 177 | Cc1ccc(-c2cccc(O[C@@H]3SC[C@@H](O)[C@H](O)[C@H]3O)c2)cn1 [Example 29, 3-(6-Methyl-3-pyridinyl)phenyl 5-thio-β-D-xylopyranoside] | –
5 | 194 | COc1ncccc1-c1cccc(O[C@@H]2SC[C@@H](O)[C@H](O)[C@H]2O)c1 [Example 33, 3-(2-Methoxy-3-pyridinyl)phenyl 5-thio-β-D-xylopyranoside] | –
6 | 195 | O[C@@H]1[C@@H](O)[C@H](Oc2ccccc2-c2cccnc2)SC[C@H]1O [Example 18, 2-(3-Pyridinyl)phenyl 5-thio-β-D-xylopyranoside] | –
7 | – | O[C@@H]1[C@@H](O)[C@H](Oc2cc(F)ccc2-c2ccncc2)SC[C@H]1O [Example 28, 5-Fluoro-2-(4-pyridinyl)phenyl 5-thio-β-D-xylopyranoside] | 71
8 | 197 | O[C@@H]1[C@@H](O)[C@H](Oc2ccc(-c3ccccn3)cc2)SC[C@H]1O [Example 10, 4-(2-Pyridinyl)phenyl 5-thio-β-D-xylopyranoside] | 86
9 | 166 | O[C@@H]1[C@@H](O)[C@H](Oc2ccc(-c3cccnc3)cc2)SC[C@H]1O [Example 6, 4-(3-Pyridinyl)phenyl 5-thio-β-D-xylopyranoside] | –
10 | – | O[C@@H]1[C@@H](O)[C@H](Oc2ccc(-c3ccncc3)cc2)SC[C@H]1O [Example 8, 4-(4-Pyridinyl)phenyl-5-thio-β-D-xylopyranoside] | 91
11 | 134 | O[C@@H]1[C@@H](O)[C@H](Oc2ccccc2-c2ccncc2)SC[C@H]1O [Example 16, 2-(4-Pyridinyl)phenyl 5-thio-β-D-xylopyranoside] | –
